From publication PMC5007650, “Crystal structure of the two-subunit tRNA m^1A58 methyltransferase TRM6-TRM61 from Saccharomyces cerevisiae” (Scientific Reports, 2016)

What was measured:
Experiment in all cases: isothermal titration calorimetry, single-site fit
Type in all cases: binding
[1] = biological target: T1, TRM6-TRM61 holoenzyme (Saccharomyces cerevisiae, UniProt P46959)
T1 construct: gene GCD14; full-length TRM6 (478 residues) and TRM61 co-expressed from pETDuet-TRM6-TRM61 in bacteria; Ni-NTA and gel filtration; with tRNA (adenine(58)-N(1))-methyltransferase non-catalytic subunit TRM6
T1 sequence (P46959 whole entry): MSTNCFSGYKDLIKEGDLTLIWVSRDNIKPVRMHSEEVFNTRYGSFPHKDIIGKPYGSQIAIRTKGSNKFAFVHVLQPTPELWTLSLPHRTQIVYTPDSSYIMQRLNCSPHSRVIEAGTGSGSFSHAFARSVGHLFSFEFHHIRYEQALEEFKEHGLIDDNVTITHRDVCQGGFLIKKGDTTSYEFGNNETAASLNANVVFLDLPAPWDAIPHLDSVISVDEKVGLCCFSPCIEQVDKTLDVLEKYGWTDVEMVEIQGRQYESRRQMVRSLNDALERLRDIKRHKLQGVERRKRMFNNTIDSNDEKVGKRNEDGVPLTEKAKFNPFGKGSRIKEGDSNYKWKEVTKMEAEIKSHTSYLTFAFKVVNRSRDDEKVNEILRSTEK
T1 sequence (P41814 whole entry partner): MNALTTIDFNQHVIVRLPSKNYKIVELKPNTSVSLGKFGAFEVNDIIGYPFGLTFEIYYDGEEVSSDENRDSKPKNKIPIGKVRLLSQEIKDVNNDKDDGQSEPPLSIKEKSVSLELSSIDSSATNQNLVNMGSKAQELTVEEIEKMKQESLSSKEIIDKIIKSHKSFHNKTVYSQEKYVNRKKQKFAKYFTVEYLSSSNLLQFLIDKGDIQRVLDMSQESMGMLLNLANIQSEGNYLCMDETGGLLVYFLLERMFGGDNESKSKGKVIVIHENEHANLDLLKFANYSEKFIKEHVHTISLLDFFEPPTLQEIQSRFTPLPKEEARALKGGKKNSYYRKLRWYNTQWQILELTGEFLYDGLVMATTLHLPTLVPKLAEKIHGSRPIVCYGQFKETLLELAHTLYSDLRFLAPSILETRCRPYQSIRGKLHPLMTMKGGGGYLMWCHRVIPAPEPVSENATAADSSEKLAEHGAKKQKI

[2] = biological target: T2, TRM6-TRM61 holoenzyme (Saccharomyces cerevisiae, UniProt P46959, V169A)
T2 construct: gene GCD14; full-length TRM6 (478 residues) and TRM61 co-expressed from pETDuet-TRM6-TRM61 in bacteria; Ni-NTA and gel filtration; with tRNA (adenine(58)-N(1))-methyltransferase non-catalytic subunit TRM6
T2 sequence (P46959 whole entry V169A): as the sequence (P46959 whole entry) above, with V169A counted along it
T2 sequence (P41814 whole entry partner): as the sequence (P41814 whole entry partner) above
From the text: (§1) isothermal titration calorimetry, single-site fit on TRM6-TRM61 holoenzyme

[3] = biological target: T3, TRM6-TRM61 holoenzyme (Saccharomyces cerevisiae, UniProt P46959, F124A)
T3 construct: gene GCD14; full-length TRM6 (478 residues) and TRM61 co-expressed from pETDuet-TRM6-TRM61 in bacteria; Ni-NTA and gel filtration; with tRNA (adenine(58)-N(1))-methyltransferase non-catalytic subunit TRM6
T3 sequence (P46959 whole entry F124A): as the sequence (P46959 whole entry) above, with F124A counted along it
T3 sequence (P41814 whole entry partner): as the sequence (P41814 whole entry partner) above
From the text: as §1

[4] = biological target: T4, TRM6-TRM61 holoenzyme (Saccharomyces cerevisiae, UniProt P46959, F140A)
T4 construct: gene GCD14; full-length TRM6 (478 residues) and TRM61 co-expressed from pETDuet-TRM6-TRM61 in bacteria; Ni-NTA and gel filtration; with tRNA (adenine(58)-N(1))-methyltransferase non-catalytic subunit TRM6
T4 sequence (P46959 whole entry F140A): as the sequence (P46959 whole entry) above, with F140A counted along it
T4 sequence (P41814 whole entry partner): as the sequence (P41814 whole entry partner) above
From the text: as §1

Work on `C[S+](CC[C@H](N)C(=O)O)C[C@H]1O[C@@H](n2cnc3c(N)ncnc32)[C@H](O)[C@@H]1O` (stereo partly shown) [SAM] yielded a Kd [1] of 44.3 ± 4.55 µM, a Kd [2] of 409 ± 74.7 µM and a Kd [3] of 317 ± 34.7 µM. For the same molecule, the Kd [4] was 787 ± 64.5 µM.
